Reference: patent US8242275B2, “Bicyclic pyrazole compounds as antibacterial agents” (Janssen Pharmaceutica NV, priority 2005, dated 2012)
Values after ≈ are worked out from the molar mass of the structure shown. Where two headings read alike, the source gives them in different places.

Experiments:
[1] = target: T1, E. coli DNA gyrase (Escherichia coli, UniProt P0AES4+P0AES6); assay: DNA gyrase inhibition assay (supercoiling); assay type: biochemical
T1 construct: purchased John Innes Enterprises Ltd. (John Innes Centre, UK)
T1 sequence (P0AES4 whole entry, one chain of several): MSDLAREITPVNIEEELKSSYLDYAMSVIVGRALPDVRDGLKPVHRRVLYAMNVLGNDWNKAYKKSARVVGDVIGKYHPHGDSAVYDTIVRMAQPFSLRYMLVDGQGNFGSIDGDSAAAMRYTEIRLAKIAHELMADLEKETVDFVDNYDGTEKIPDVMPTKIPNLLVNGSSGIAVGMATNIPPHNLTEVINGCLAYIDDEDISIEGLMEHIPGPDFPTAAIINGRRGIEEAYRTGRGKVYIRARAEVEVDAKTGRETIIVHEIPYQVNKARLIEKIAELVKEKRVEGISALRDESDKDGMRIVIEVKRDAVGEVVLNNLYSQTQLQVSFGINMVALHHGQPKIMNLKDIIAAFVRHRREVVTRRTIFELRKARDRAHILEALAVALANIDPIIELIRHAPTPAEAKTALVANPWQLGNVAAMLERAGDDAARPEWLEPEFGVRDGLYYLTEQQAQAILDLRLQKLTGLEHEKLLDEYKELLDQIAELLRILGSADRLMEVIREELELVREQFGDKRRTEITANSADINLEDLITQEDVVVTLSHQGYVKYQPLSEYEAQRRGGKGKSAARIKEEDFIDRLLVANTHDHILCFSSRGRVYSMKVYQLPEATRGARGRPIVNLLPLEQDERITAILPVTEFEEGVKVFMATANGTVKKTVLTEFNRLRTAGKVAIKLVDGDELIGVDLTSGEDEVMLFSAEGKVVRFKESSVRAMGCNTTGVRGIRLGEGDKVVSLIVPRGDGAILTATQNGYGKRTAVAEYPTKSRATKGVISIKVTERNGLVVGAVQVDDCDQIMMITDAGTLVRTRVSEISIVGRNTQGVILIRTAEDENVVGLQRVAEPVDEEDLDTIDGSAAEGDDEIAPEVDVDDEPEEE
Summary of the method: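 Relaxed pBR322 (250 ng) was supercoiled by 0.2 unit gyrase in Tris-HCl pH 7.5, KCl, MgCl2, DTT, spermidine, 1 mM ATP, glycerol, albumin, 0.5% DMSO final, 30 min at 37° C. Products were resolved on 1.0% agarose gels with ethidium bromide staining.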

[2] = system: E. coli KL-16 (GSC strain 4245); assay: In vitro antibacterial activity (MIC assay), broth microdilution; assay type: cell-based; conditions: Escherichia coli
Summary of the method: (§1)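 Broth microdilution per NCCLS M7-A5: 11-point 2-fold compound dilutions from DMSO stocks, inoculum about 5×10^5 CFU/mL, incubation 35° C for 16–24 h. MIC scored visually against no-compound growth controls, in μg/mL.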

[3] = system: S. pneumoniae ATCC49619; assay: as above; assay type: cell-based; conditions: Streptococcus pneumoniae, ATCC49619; read-out: S. pneumoniae ATCC49619 MIC
Summary of the method: as §1

[4] = system: S. aureus ATCC13709; assay: as above; assay type: cell-based
Summary of the method: as §1

[5] = target: T2, E. coli topoisomerase IV (Escherichia coli, UniProt P0AFI2+P20083); assay: Topoisomerase IV inhibition assay (relaxation); assay type: biochemical
T2 construct: purchased John Innes Enterprises Ltd. (John Innes Centre, UK)
T2 sequence (P0AFI2 whole entry): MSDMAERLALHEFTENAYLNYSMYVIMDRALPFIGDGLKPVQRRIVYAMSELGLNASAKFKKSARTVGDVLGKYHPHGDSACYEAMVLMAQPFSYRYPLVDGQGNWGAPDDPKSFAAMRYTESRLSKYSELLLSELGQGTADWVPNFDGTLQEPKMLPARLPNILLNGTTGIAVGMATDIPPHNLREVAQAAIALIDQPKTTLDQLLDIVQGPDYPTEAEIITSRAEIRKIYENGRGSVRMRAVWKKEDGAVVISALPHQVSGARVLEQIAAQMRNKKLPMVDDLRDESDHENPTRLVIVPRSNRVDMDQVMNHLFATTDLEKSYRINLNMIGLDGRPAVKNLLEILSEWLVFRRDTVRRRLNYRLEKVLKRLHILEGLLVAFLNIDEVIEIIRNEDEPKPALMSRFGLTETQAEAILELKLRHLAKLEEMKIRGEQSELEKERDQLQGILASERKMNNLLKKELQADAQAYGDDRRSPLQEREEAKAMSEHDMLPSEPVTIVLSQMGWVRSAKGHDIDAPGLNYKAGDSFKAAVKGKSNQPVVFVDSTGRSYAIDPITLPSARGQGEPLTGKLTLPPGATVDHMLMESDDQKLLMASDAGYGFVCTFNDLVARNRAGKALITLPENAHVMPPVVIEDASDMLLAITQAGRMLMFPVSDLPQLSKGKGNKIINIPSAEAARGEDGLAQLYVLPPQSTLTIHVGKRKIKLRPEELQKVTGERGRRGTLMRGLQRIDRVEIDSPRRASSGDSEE
T2 sequence (P20083 whole entry): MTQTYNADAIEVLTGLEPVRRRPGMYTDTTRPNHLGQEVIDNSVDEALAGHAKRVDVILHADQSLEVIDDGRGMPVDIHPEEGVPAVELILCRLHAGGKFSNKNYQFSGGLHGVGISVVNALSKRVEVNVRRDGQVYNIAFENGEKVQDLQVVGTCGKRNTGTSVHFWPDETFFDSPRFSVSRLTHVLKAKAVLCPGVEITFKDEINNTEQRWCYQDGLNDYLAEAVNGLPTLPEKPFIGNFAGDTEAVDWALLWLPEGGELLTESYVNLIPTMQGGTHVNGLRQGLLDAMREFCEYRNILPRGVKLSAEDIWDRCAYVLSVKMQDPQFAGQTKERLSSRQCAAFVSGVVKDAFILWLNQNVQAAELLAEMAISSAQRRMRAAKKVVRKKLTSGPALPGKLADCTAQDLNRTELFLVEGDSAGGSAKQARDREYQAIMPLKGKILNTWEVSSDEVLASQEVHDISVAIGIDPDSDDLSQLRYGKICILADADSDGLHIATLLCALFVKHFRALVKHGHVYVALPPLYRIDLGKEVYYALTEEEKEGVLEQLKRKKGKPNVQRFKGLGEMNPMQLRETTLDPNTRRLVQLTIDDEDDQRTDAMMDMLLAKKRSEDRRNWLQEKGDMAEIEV
Description: Inhibition of the relaxation activity of E. coli topoisomerase IV was determined using enzyme, buffers and substrates received from John Innes Enterprises Ltd. (John Innes Centre, UK). The reactions were performed according to the manufacturer's directions, with the following modifications.
DNA relaxation reactions were carried out in a total reaction volume of 20 μL, containing 300 ng of supercoiled pBR322, 40 mM HEPES-KOH (pH 7.6), 100 mM potassium glutamate, 10 mM Mg(OAc)2, 10 mM DTT, 4 μg/mL tRNA, 2 mM ATP, and 50 μg/mL BSA. Compounds, diluted in 10% DMSO, were added to the reaction mixture to reach a final concentration of 0.5% DMSO. Enzyme was diluted to 0.45 unit/μL in a solution of 40 mM HEPES-KOH (pH 7.6), 150 mM potassium glutamate, 1 mM DTT, 1 mM EDTA, and 40% glycerol. Diluted enzyme (0.9 unit) was added to each reaction.
The reactions were incubated at 37° C. for 45 min. The reactions were then cooled to 0° C. followed by addition of 3 μL of 40% glycerol, 100 mM Tris-HCl (pH 7.5), 50 mM EDTA, 0.5% SDS and 0.1% bromophenol blue. Samples were separated on 1.0% agarose gels. Gels were stained with Ethidium bromide and photographed with a Stratagene Eagle Eye II.

[6] = E. coli DNA gyrase supercoiling, visual inspection of gels, read-out: DNA Gyrase IC50 (converted)
[7] = Staphylococcus aureus, ATCC13709; read-out: S. aureus ATCC13709 MIC
[8] = E. coli topoisomerase IV relaxation, visual inspection of gels, read-out: Topoisomerase IV IC50 (converted)

| SMILES | IC50 [1, 6] | MIC [2] | MIC [3] | MIC [4, 7] | IC50 [5, 8] | IC50 [1] | IC50 [5] | MIC ([4]; Staphylococcus aureus, ATCC13709, read-out: S. aureus ATCC13709 MIC) |
| --- | --- | --- | --- | --- | --- | --- | --- | --- |
| COc1ccc2nccc(-n3cc4c(n3)CCC(NCc3cc5c(cc3F)SCC(=O)N5)C4)c2n1 (stereo not drawn) [Example 40, 7-Fluoro-6-{[2-(6-methoxy-[1,5]naphthyridin-4-yl)-4,5,6,7-tetrahydro-2H-indazol-5-ylamino]-methyl}-4H-benzo[1,4]thiazin-3-one] | 4080 nM | 4 µg/mL (≈ 8.15 µM) | 4 µg/mL (≈ 8.15 µM) | 0.25 µg/mL (≈ 0.51 µM) | 122 nM | – | – | – |
| O=C1CSc2ccc(C(=O)NC3CCc4nn(-c5cccc6ccccc56)cc4C3)cc2N1 (stereo not drawn) [Example 34, 3-Oxo-3,4-dihydro-2H-benzo[1,4]thiazine-6-carboxylic acid (2-naphthalen-1-yl-4,5,6,7-tetrahydro-2H-indazol-5-yl)-amide] | 4400 nM | > 128 µg/mL | 8 µg/mL (≈ 17.6 µM) | 0.5 µg/mL (≈ 1.1 µM) | 275 nM | – | – | – |
| COc1ccc2nccc(-n3cc4c(n3)CCC(NCc3ccc5c(n3)NC(=O)CO5)C4)c2c1 (stereo not drawn) [Example 54, 6-{[2-(6-Methoxy-quinolin-4-yl)-4,5,6,7-tetrahydro-2H-indazol-5-ylamino]-methyl}-4H-pyrido[3,2-b][1,4]oxazin-3-one] | 131 nM | 2 µg/mL (≈ 4.38 µM) | 2 µg/mL (≈ 4.38 µM) | 1 µg/mL (≈ 2.19 µM) | 35 nM | – | – | – |
| COc1ccc2nccc(-n3cc4c(n3)CCC(NC(=O)c3cc5c(cc3Br)SCC(=O)N5)C4)c2n1 (stereo not drawn) [Example 113, 7-Bromo-3-oxo-3,4-dihydro-2H-benzo[1,4]thiazine-6-carboxylic acid [2-(6-methoxy-[1,5]naphthyridin-4-yl)-4,5,6,7-tetrahydro-2H-indazol-5-yl]-amide] | 442 nM | 2 µg/mL (≈ 3.54 µM) | 2 µg/mL (≈ 3.54 µM) | 0.125 µg/mL (≈ 0.221 µM) | 442 nM | – | – | – |
| O=C1CSc2ccc(C(=O)NC3CCc4nn(-c5ccnc6cc(Cl)ccc56)cc4C3)cc2N1 (stereo not drawn) [Example 81, 3-Oxo-3,4-dihydro-2H-benzo[1,4]thiazine-6-carboxylic acid [2-(7-chloro-quinolin-4-yl)-4,5,6,7-tetrahydro-2H-indazol-5-yl]-amide] | – | > 128 µg/mL | > 128 µg/mL | 2 µg/mL (≈ 4.08 µM) | > 1020 nM | – | – | – |
| O=C1CSc2cc(F)c(C(=O)NC3CCc4nn(-c5cccc6cccnc56)cc4C3)cc2N1 (stereo not drawn) [Example 32, 7-Fluoro-3-oxo-3,4-dihydro-2H-benzo[1,4]thiazine-6-carboxylic acid (2-quinolin-8-yl-4,5,6,7-tetrahydro-2H-indazol-5-yl)-amide] | – | 16 µg/mL (≈ 33.8 µM) | 4 µg/mL (≈ 8.45 µM) | 0.25 µg/mL (≈ 0.528 µM) | 264 nM | – | – | – |
| COc1ccc2nccc(-n3cc4c(n3)CCN(CC(=O)c3ccc5c(c3)NC(=O)CO5)C4)c2c1 [Example 64, 6-{2-[2-(6-Methoxy-quinolin-4-yl)-2,4,6,7-tetrahydro-pyrazolo[4,3-c]pyridin-5-yl]-acetyl}-4H-benzo[1,4]oxazin-3-one] | > 8520 nM | 64 µg/mL (≈ 136 µM) | 128 µg/mL (≈ 273 µM) | 4 µg/mL (≈ 8.52 µM) | 532 nM | – | – | – |
| COc1ccc2nccc(-n3cc4c(n3)CCC(NC(=O)C3(c5ccc(Cl)cc5)CCCC3)C4)c2c1 (stereo not drawn) [Example 80, 1-(4-Chloro-phenyl)-cyclopentanecarboxylic acid [2-(6-methoxy-quinolin-4-yl)-4,5,6,7-tetrahydro-2H-indazol-5-yl]-amide] | > 31900 nM | > 128 µg/mL | 128 µg/mL (≈ 255 µM) | 8 µg/mL (≈ 16 µM) | > 2000 nM | – | – | – |
| COc1ccc2nccc(-n3cc4c(n3)CCC(NCc3ccc5c(c3)NCCS5)C4)c2c1 (stereo not drawn) [Example 102] | 1090 nM | 8 µg/mL (≈ 17.5 µM) | 0.5 µg/mL (≈ 1.09 µM) | 0.5 µg/mL (≈ 1.09 µM) | 137 nM | – | – | – |
| COc1ccc2nccc(-n3cc4c(n3)CCC(NC(=O)c3ccc5c(c3)OCCO5)C4)c2n1 (stereo not drawn) [Example 1, 2,3-Dihydro-benzo[1,4]dioxine-6-carboxylic acid [2-(6-methoxy-[1,5]naphthyridin-4-yl)-4,5,6,7-tetrahydro-2H-indazol-5-yl]-amide] | > 69900 nM | > 128 µg/mL | 8 µg/mL (≈ 17.5 µM) | 0.5 µg/mL (≈ 1.09 µM) | > 2190 nM | – | – | – |
| COc1ccc2nccc(-n3cc4c(n3)CCC(NCc3ccc5c(c3)OC(F)(F)O5)C4)c2n1 (stereo not drawn) [Example 38, (2,2-Difluoro-benzo[1,3]dioxol-5-ylmethyl)-[2-(6-methoxy-[1,5]naphthyridin-4-yl)-4,5,6,7-tetrahydro-2H-indazol-5-yl]-amine] | 4300 nM | > 128 µg/mL | 4 µg/mL (≈ 8.59 µM) | 0.25 µg/mL (≈ 0.537 µM) | 537 nM | – | – | – |
| COc1ccc2nccc(-n3cc4c(n3)CCC(NCCOc3cc(F)cc(F)c3)C4)c2c1 (stereo not drawn) [Example 121] | – | 8 µg/mL (≈ 17.8 µM) | 2 µg/mL (≈ 4.44 µM) | 1 µg/mL (≈ 2.22 µM) | – | 1110 nM | 277 nM | – |
| COc1ccc2nccc(-n3cc4c(n3)CCC(NCc3ccc5c(c3)OCCO5)C4)c2n1 (stereo not drawn) [Example 42, (2,3-Dihydro-benzo[1,4]dioxin-6-ylmethyl)-[2-(6-methoxy-[1,5]naphthyridin-4-yl)-4,5,6,7-tetrahydro-2H-indazol-5-yl]-amine] | 2250 nM | 32 µg/mL (≈ 72.2 µM) | 0.5 µg/mL (≈ 1.13 µM) | 0.03 µg/mL (≈ 0.0676 µM) | 564 nM | – | – | – |
| COc1ccc2nccc(-n3cc4c(n3)CCC(NC(=O)c3cc5c(cc3Br)SCC(=O)N5)C4)c2c1 (stereo not drawn) [Example 114, 7-Bromo-3-oxo-3,4-dihydro-2H-benzo[1,4]thiazine-6-carboxylic acid [2-(6-methoxy-quinolin-4-yl)-4,5,6,7-tetrahydro-2H-indazol-5-yl]-amide] | 886 nM | 2 µg/mL (≈ 3.54 µM) | 2 µg/mL (≈ 3.54 µM) | – | 221 nM | – | – | 0.125 µg/mL (≈ 0.221 µM) |
| COc1ccc2nccc(-n3cc4c(n3)CCC(NC(=O)c3cc5ccccc5s3)C4)c2c1 (stereo not drawn) [Example 23, Benzo[b]thiophene-2-carboxylic acid [2-(6-methoxy-quinolin-4-yl)-4,5,6,7-tetrahydro-2H-indazol-5-yl]-amide] | – | > 128 µg/mL | 2 µg/mL (≈ 4.4 µM) | < 0.125 µg/mL | > 2200 nM | – | – | – |
| COc1ccc2nccc(-n3cc4c(n3)CCC(NCCCc3ccc(C)cc3)C4)c2n1 (stereo not drawn) [Example 49, [2-(6-Methoxy-[1,5]naphthyridin-4-yl)-4,5,6,7-tetrahydro-2H-indazol-5-yl]-(3-p-tolyl-propyl)-amine] | 7020 nM | 128 µg/mL (≈ 299 µM) | 0.5 µg/mL (≈ 1.17 µM) | < 0.125 µg/mL | – | – | – | – |
| COc1ccc2nccc(-n3cc4c(n3)CCC(NC(=O)c3ccc(C)c([N+](=O)[O-])c3)C4)c2c1 (stereo not drawn) [Example 111, N-[2-(6-Methoxy-quinolin-4-yl)-4,5,6,7-tetrahydro-2H-indazol-5-yl]-4-methyl-3-nitro-benzamide] | > 35000 nM | > 128 µg/mL | 4 µg/mL (≈ 8.74 µM) | 0.25 µg/mL (≈ 0.546 µM) | – | – | – | – |
| COc1ccc2nccc(-n3cc4c(n3)CCC(NC(=O)/C=C/c3ccc(F)cc3F)C4)c2n1 (stereo not drawn) [Example 120, 3-(2,4-Difluoro-phenyl)-N-[2-(6-methoxy-[1,5]naphthyridin-4-yl)-4,5,6,7-tetrahydro-2H-indazol-5-yl]-acrylamide] | 4330 nM | > 128 µg/mL | 4 µg/mL (≈ 8.67 µM) | 0.125 µg/mL (≈ 0.271 µM) | – | – | – | – |
| COc1ccc2nccc(-n3cc4c(n3)CCC(NC(=O)c3ccc(C(C)=O)s3)C4)c2c1 (stereo not drawn) [Example 73, 5-Acetyl-thiophene-2-carboxylic acid [2-(6-methoxy-quinolin-4-yl)-4,5,6,7-tetrahydro-2H-indazol-5-yl]-amide] | > 35800 nM | > 128 µg/mL | 64 µg/mL (≈ 143 µM) | 4 µg/mL (≈ 8.96 µM) | – | – | – | – |
| COc1ccc2nccc(-n3cc4c(n3)CCC(NC(=O)c3ccc(Br)s3)C4)c2c1 (stereo not drawn) [Example 72, 5-Bromo-thiophene-2-carboxylic acid [2-(6-methoxy-quinolin-4-yl)-4,5,6,7-tetrahydro-2H-indazol-5-yl]-amide] | > 33100 nM | > 128 µg/mL | > 128 µg/mL | 2 µg/mL (≈ 4.14 µM) | – | – | – | – |
| COc1ccc2nccc(-n3cc4c(n3)CCC(NC(=O)c3cc5ccccc5[nH]3)C4)c2c1 (stereo not drawn) [Example 21, 1H-Indole-2-carboxylic acid [2-(6-methoxy-quinolin-4-yl)-4,5,6,7-tetrahydro-2H-indazol-5-yl]-amide] | > 36600 nM | > 128 µg/mL | 8 µg/mL (≈ 18.3 µM) | 1 µg/mL (≈ 2.29 µM) | – | – | – | – |
